Laboratory results taken from US8476264B2, “N-(3-(2-amino-6,6-difluoro-4,4A,5,6,7,7A-hexahydro-cyclopenta[E][1,3]oxazin-4-yl)-phenylamides as BACE1 inhibitors” (Hoffmann-La Roche Inc., priority 2011, dated 2013).

biological target: T1, P-gp (P-glycoprotein, human MDR1) (Homo sapiens, UniProt P08183); assay: P-gp (P-glycoprotein) assay, bidirectional transcellular transport in LLC-PK1 and L-MDR1 cells; assay type: in vitro ADME; conditions: ER = PappBA/PappAB, read-out: P-gp human, efflux ratio: substrate category
T1 construct: host or cells: LLC-PK1 (porcine kidney epithelial) cells, L-MDR1
T1 sequence (P08183 whole entry): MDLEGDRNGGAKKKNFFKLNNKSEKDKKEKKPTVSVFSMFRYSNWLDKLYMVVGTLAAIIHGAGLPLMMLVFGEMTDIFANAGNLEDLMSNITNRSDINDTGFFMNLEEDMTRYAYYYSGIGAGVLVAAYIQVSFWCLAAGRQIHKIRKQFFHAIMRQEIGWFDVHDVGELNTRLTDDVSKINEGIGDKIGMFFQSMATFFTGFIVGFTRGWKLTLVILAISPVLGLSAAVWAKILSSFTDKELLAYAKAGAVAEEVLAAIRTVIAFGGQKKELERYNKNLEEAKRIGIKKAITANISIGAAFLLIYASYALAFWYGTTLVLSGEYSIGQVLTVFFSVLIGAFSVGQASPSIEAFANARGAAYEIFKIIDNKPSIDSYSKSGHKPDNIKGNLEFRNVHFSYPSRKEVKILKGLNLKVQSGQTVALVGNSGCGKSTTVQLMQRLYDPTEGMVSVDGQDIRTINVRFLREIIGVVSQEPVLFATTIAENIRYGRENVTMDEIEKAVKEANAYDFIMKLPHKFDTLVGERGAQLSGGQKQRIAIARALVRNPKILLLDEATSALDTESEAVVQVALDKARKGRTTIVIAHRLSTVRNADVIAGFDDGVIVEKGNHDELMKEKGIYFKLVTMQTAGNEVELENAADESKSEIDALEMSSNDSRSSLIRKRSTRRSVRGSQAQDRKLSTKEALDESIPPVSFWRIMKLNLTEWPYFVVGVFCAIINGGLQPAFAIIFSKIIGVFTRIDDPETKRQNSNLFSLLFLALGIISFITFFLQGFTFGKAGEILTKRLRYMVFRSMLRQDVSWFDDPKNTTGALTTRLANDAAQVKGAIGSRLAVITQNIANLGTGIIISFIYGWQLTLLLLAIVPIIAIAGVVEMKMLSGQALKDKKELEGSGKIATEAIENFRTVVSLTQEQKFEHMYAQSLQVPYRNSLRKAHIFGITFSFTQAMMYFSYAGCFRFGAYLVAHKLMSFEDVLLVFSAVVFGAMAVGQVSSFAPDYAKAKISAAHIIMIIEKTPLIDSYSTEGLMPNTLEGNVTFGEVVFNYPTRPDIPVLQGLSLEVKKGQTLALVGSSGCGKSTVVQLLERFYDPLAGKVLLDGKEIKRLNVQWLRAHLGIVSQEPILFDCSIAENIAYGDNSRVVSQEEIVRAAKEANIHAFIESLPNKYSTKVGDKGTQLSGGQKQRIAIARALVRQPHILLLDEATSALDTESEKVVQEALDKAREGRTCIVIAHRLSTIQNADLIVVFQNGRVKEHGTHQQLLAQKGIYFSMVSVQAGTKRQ
Protocol: P-gp (P-glycoprotein) Assay Cell Lines Used for Transport Experiments
The LLC-PK1 cell line (ATCC #CL-101) is a porcine kidney epithelial cell line. The MDR1 (Human multidrug resistance protein 1) transfected cell lines were obtained from Dr. A. Schinkel, The Netherlands Cancer Institute (Amsterdam, The Netherlands). All cell lines were cultured on permeable inserts (96-insert plates Millipore, 0.11 cm^2 area, pore size 0.4 μm) at 0.73*10^6 cells/ml. Transport measurements were performed at day 4 after seeding. Tightness of the cell monolayer was controlled via the permeability of the extracellular marker lucifer yellow (10 μM).
In Vitro Transport Experiments
Bidirectional transcellular transport using LLC-PK1 and L-MDR1 LLC-PK1 cells exogenously expressing the human MDR1)
The experiments were performed on a TECAN automated liquid handling system. Briefly, medium was removed from all compartments and the medium of receiver side was replaced with culture medium. The trans-cellular transport measurements were initiated by adding the substrate together with extracellular marker lucifer yellow to the donor side. Inhibitors were added to both sides (1 μM elacridar). Transport experiments were performed both in the basolateral-to-apical and apical-to-basolateral directions with 3 wells each. The plates were incubated at 37° C. and 5% CO2 in a Liconic incubator. Samples were taken from the donor and the opposite (acceptor) side after 2 hours incubation. Concentrations of substrate in both compartments were determined by scintillation counting (digoxin) or by LC-MS/MS. The extracellular marker (lucifer yellow) was quantified using a spectrafluor plus reader at 430/535 nm (Ex/Em). In each experiment 3 different inserts were used for each condition and a mean was calculated.
Bidirectional transcellular transport using LLC-PK1 and L-MDR1 cells
For the transcellular transport, the following equation was used for data evaluation: […]
Where Papp, A, C0, and dQ/dt represent the apparent permeability, the filter surface area, the initial concentration, and the amount transported per time period, respectively.
Transport efflux ratios (ER) were calculated as follows: […]
Where PappBA is the permeability value in the basolateral-to-apical direction, and PappAB the permeability value in the apical-to-basolateral direction. Papp were not corrected for flux of the extracellular marker lucifer yellow, which was used to assess the quality of the cell monolayers.

Efflux ratio at 2 h, < 3:
N#Cc1ccc(C(=O)Nc2ccc(F)c([C@@]3(CF)N=C(N)O[C@@H]4CC(F)(F)C[C@@H]43)c2)nc1 [Example 3, 5-Cyano-pyridine-2-carboxylic acid [(S)-3-((1R,2R)-2-amino-6,6-difluoro-4-fluoromethyl-4,4a,5,6,7,7a-hexahydro-cyclopenta[e][1,3]oxazin-4-yl)-4-fluoro-phenyl]-amide]
NC1=N[C@](CF)(c2cc(NC(=O)c3ccc(F)cn3)ccc2F)[C@H]2CC(F)(F)C[C@H]2O1 [Example 7, 5-Fluoro-pyridine-2-carboxylic acid [(S)-3-((1R,2R)-2-amino-6,6-difluoro-4-fluoromethyl-4,4a,5,6,7,7a-hexahydro-cyclopenta[e][1,3]oxazin-4-yl)-4-fluoro-phenyl]-amide]
NC1=N[C@](CF)(c2cc(NC(=O)c3cnc(C(F)F)cn3)ccc2F)[C@H]2CC(F)(F)C[C@H]2O1 [Example 24, 5-Difluoromethyl-pyrazine-2-carboxylic acid [(S)-3-((1R,2R)-2-amino-6,6-difluoro-4-fluoromethyl-4,4a,5,6,7,7a-hexahydro-cyclopenta[e][1,3]oxazin-4-yl)-4-fluoro-phenyl]-amide]
N#Cc1ccc(C(=O)Nc2ccc(F)c([C@@]3(C(F)F)N=C(N)O[C@@H]4CC(F)(F)C[C@@H]43)c2)nc1 [Example 36, 5-Cyano-pyridine-2-carboxylic acid [(S)-3-((1R,2R)-2-amino-4-difluoromethyl-6,6-difluoro-4,4a,5,6,7,7a-hexahydro-cyclopenta[e][1,3]oxazin-4-yl)-4-fluoro-phenyl]-amide]
COc1cnc(C(=O)Nc2ccc(F)c([C@@]3(C(F)F)N=C(N)O[C@@H]4CC(F)(F)C[C@@H]43)c2)cn1 [Example 42, 5-Methoxy-pyrazine-2-carboxylic acid [(S)-3-((1R,2R)-2-amino-4-difluoromethyl-6,6-difluoro-4,4a,5,6,7,7a-hexahydro-cyclopenta[e][1,3]oxazin-4-yl)-4-fluoro-phenyl]-amide]
